Reference: US20160053120A1, “AZO DYE USED FOR A COLOR FILTER OF A LCD” (DOW GLOBAL TECHNOLOGIES LLC, priority 2013, published 2016)

Legend:
[1] = Solubility in cyclohexanone at 25° C.; type: physicochemical
[2] = Thermal stability of polymer film (ΔEab before and after hard baking at 200° C. for 1 hour); type: physicochemical; conditions: dye in acrylic resin film, baked at 200° C. under air for 1 hour; smaller ΔEab = better heat resistance
Description: The obtained dry film was baked at 200° C. under air for 1 hour to evaluate heat resistance. Optical performance measured by the difference between chromaticity coordinates of before and after baking (ΔEab value) was 4.9. A smaller ΔEab value indicates better heat resistance.
The wet films after spin coating are dried in oven at 80° C. for 30 minutes and then soft baked at 150° C. for 15 minutes. The chromaticity coordinates (L, a, b) are recorded with UltraScan Pro (Hunterlab) colorimeter. D65 light source is used and results are based on CIE Lab coordinates. After that the films are hard baked at target temperature (200° C.) for lhour and the new chromaticity coordinates (L′, a′, b′) are recorded with the method above. The thermal stability is indicated by the difference of chromaticity coordinate before and after hard baking represented by the following formula;
ΔE=√{square root over ((L−L′^2+(a−a′)^2+(b−b′)^2)}{square root over ((L−L′^2+(a−a′)^2+(b−b′)^2)}.

Row | Compound | Solubility in cyclohexanone at 25° C. (wt %) [1] | Thermal stability at 200° C. (ΔEab) [2]
1 | CC1=NN(c2ccccc2)C(=O)C1/N=N/c1ccccc1 (stereo not drawn) [Example 2, C.I. solvent yellow 16] | 6.4 wt % | 43
2 | Oc1ccc2ccccc2c1/N=N/c1ccccc1 [Example 4, C.I. solvent yellow 14] | 6.4 wt % | 64
3 | Cc1ccccc1/N=N/c1ccc(/N=N/c2c(O)ccc3ccccc23)c(C)c1 [Example 3, C.I. solvent red 24] | 4.3 wt % | 15
